Measurements from patent US6528516B1, “Methods for reducing intraocular pressure using A3 adenosine receptor antagonists” (Trustees of the University of Pennsylvania, The Center for …, priority 1998, dated 2003).
“And” between values parts separate entries of the source, which are not always exact repeats. Equal values may be shown once.

Test system: HCE (human ciliary epithelial) cell line, NPE cells
Test: Cell volume (shrinkage) of NPE cells in isosmotic solution, Coulter Counter, 5 μM gramicidin
Type: cell-based
How it was run: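 HCE-derived NPE cells suspended in isosmotic bicarbonate/HEPES Ringer's (pH 7.4, 298-305 mOsm), with 5 μM gramicidin D in all solutions to remove K^+ channel contribution. Volume measured by Coulter Counter as peak of distribution, normalized to first time point; shrinkage fit to monoexponential by nonlinear least squares for v∞ and τ. Vehicle-matched controls.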

[1] = 30 nM IB-MECA, 5 μM gramicidin, FIG. 2A
[2] = FIG. 2D, 100 nM Cl-IB-MECA, IB-MECA in parallel

## CNC(=O)[C@H]1O[C@@H](n2cnc3c(NCc4cccc(I)c4)ncnc32)[C@H](O)[C@@H]1O [IB-MECA, N^6-(3-iodobenzyl)-adenosine-5′-N-methyluronamide]
[1]
  steady-state cell volume (V∞): 98.5±0.1%
  time constant of the shrinkage (τ): 3.5 ± 1.5 min
100 nM agonist
  effect of adenosine-receptor agonist on isoosmotic volume: produced shrinkage
100 nM, FIG. 5A
  steady-state cell volume (V∞): 95.6±0.2%
  time constant of the shrinkage (τ): 4.5 ± 0.6 min
1 μM IB-MECA, FIG. 2A
  steady-state cell volume (V∞): 95.9±0.3%
  time constant of the shrinkage (τ): 2.4 ± 0.7 min
1 μM IB-MECA, FIG. 2B
  steady-state cell volume (V∞): 97.5±0.1%
  time constant of the shrinkage (τ): 7.2 ± 1.0 min
3 μM IB-MECA, FIG. 2B
  steady-state cell volume (V∞): 96.7±0.3%
  time constant of the shrinkage (τ): 10.0 ± 2.3 min
10 μM IB-MECA, FIG. 2B
  steady-state cell volume (V∞): 97.9±0.2%
  time constant of the shrinkage (τ): 3.2 ± 1.1 min
[2]
  steady-state cell volume (V∞): 96.8±0.4%
  time constant of the shrinkage (τ): 6.3 ± 2.2 min
Lineweaver-Burk plot of monoexponential fits, FIG. 2C, read-out: apparent Kd for the IB-MECA-induced shrinkage
  Kd: 55 nM and ~55 nM
